Structures are written as SMILES. Where “and” joins values, the source holds several entries; their conditions need not be identical. Identical values can stand only once. Inconclusive results and toxic doses are left out.

Among the data in PubChem BioAssay AID256 (DTP/NCI, 2004) are T/C values, retold here.

The experiment concerns CD2F1 mice, L1210 leukemia ip, survival T/C. Briefly: NCI In Vivo Anticancer Drug Screen. Data for tumor model L1210 Leukemia (intraperitoneal) in CD2F1 (CDF1) mice. The note with it: higher = longer survival. The procedure, abridged: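 Each value reflects a quotient of treated over vehicle control outcomes in mice with a transplanted tumor.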
[1] abbreviates: endpoint: mean survival time, dose: 100.0 mg/kg/injection, schedule: Q04DX003 (ip), vehicle: saline with Tween-80.
The mark [2] stands for this setting: endpoint: mean survival time, dose: 200.0 mg/kg/injection, schedule: Q04DX003 (ip), vehicle: saline with Tween-80.
The mark [3] stands for this setting: endpoint: mean survival time, dose: 400.0 mg/kg/injection, schedule: Q04DX003 (ip), vehicle: saline with Tween-80.
Setting [4] is: endpoint: mean survival time, dose: 100.0 mg/kg/injection, schedule: Q01DX001 (ip), vehicle: saline with Tween-80.
Setting [5] is: endpoint: mean survival time, dose: 100.0 mg/kg/injection, schedule: Q01DX009 (ip), vehicle: saline with Tween-80.
Setting [6] is: endpoint: mean survival time, dose: 200.0 mg/kg/injection, schedule: Q01DX001 (ip), vehicle: saline with Tween-80.
Where [7] appears, read: endpoint: mean survival time, dose: 200.0 mg/kg/injection, schedule: Q01DX009 (ip), vehicle: saline with Tween-80.
Setting [8] is: endpoint: mean survival time, dose: 400.0 mg/kg/injection, schedule: Q01DX009 (ip), vehicle: saline with Tween-80.

Take `NC1CCC(CCCC2CCCC2)CC1` (configuration not stated): the T/C by setting is: (endpoint: mean survival time, dose: 6.25 mg/kg/injection, schedule: Q01DX009 (ip), vehicle: saline with Tween-80) 102 % of control; (endpoint: mean survival time, dose: 12.5 mg/kg/injection, schedule: Q01DX009 (ip), vehicle: saline with Tween-80) 98 % of control; (endpoint: mean survival time, dose: 25.0 mg/kg/injection, schedule: Q01DX009 (ip), vehicle: saline with Tween-80) 102 % of control.
Consider `COc1ccc(NC(=O)Nc2ccccc2C(F)(F)F)cc1`, for which the T/C was 98 % of control under setting [1], 96 % of control under setting [2] and 90 % of control under setting [3].
The like results for `O=C(Nc1ccc2c3c(ccc(C(=O)Nc4ccccc4)c13)CC2)c1ccccc1` were, in that order, 100 % of control, 100 % of control and 92 % of control.
In the case of `CC(O)C(O)C=O` (configuration not stated), the T/C is, setting by setting: (endpoint: mean survival time, dose: 72.0 mg/kg/injection, schedule: Q03HX008 (ip), vehicle: saline) 100 % of control; (endpoint: mean survival time, dose: 120.0 mg/kg/injection, schedule: Q03HX008 (ip), vehicle: saline) 97 % of control; (endpoint: mean survival time, dose: 200.0 mg/kg/injection, schedule: Q03HX008 (ip), vehicle: saline) 102 % of control; (endpoint: mean survival time, dose: 248.0 mg/kg/injection, schedule: Q01DX009 (ip), vehicle: saline) 101 % of control; (endpoint: mean survival time, dose: 346.0 mg/kg/injection, schedule: Q01DX009 (ip), vehicle: saline) 104 % of control; (endpoint: mean survival time, dose: 576.0 mg/kg/injection, schedule: Q01DX001 (ip), vehicle: saline) 97 % of control. Also, the T/C runs as follows: (endpoint: mean survival time, dose: 576.0 mg/kg/injection, schedule: Q01DX009 (ip), vehicle: saline) 107 % of control; (endpoint: mean survival time, dose: 960.0 mg/kg/injection, schedule: Q01DX001 (ip), vehicle: saline) 94 % of control; (endpoint: mean survival time, dose: 1600.0 mg/kg/injection, schedule: Q01DX001 (ip), vehicle: saline) 102 % of control.
With `Cc1ccc(NC(=O)Nc2ccccc2Cl)c(C)c1`, the T/C is, setting by setting: under setting [1], 102 % of control; under setting [2], 90 % of control; under setting [3], 93 % of control.
As for `CCc1ccc(C)[nH]c1=S`, the T/C was 105 % of control (endpoint: mean survival time, dose: 50.0 mg/kg/injection, schedule: Q01DX009 (ip), vehicle: saline with Tween-80); 102 % of control under setting [4]; 98 % of control under setting [5]; 102 % of control under setting [6]; 98 % of control under setting [7].
Regarding `COc1cc(C(C)c2cc3c(cc2OCCO)OCO3)cc(OC)c1OC` (configuration not stated), the T/C was 96 % of control and 106 % of control (endpoint: median survival time, dose: 25.0 mg/kg/injection, schedule: Q01DX009 (ip), vehicle: saline with Tween-80); 106 % of control and 109 % of control (endpoint: median survival time, dose: 50.0 mg/kg/injection, schedule: Q01DX009 (ip), vehicle: saline with Tween-80); 106 % of control and 110 % of control (endpoint: median survival time, dose: 100.0 mg/kg/injection, schedule: Q01DX009 (ip), vehicle: saline with Tween-80).
`NC(N)=NOCC[C@@H](N)C(=O)O`: the T/C is 102 % of control (endpoint: median survival time, dose: 25.0 mg/kg/injection, schedule: Q01DX009 (ip), vehicle: saline); 101 % of control (endpoint: median survival time, dose: 50.0 mg/kg/injection, schedule: Q01DX009 (ip), vehicle: saline); 98 % of control (endpoint: median survival time, dose: 100.0 mg/kg/injection, schedule: Q01DX009 (ip), vehicle: saline); 103 % of control (endpoint: median survival time, dose: 200.0 mg/kg/injection, schedule: Q01DX009 (ip), vehicle: saline); 102 % of control (endpoint: median survival time, dose: 400.0 mg/kg/injection, schedule: Q01DX009 (ip), vehicle: saline); 97 % of control (endpoint: median survival time, dose: 500.0 mg/kg/injection, schedule: Q01DX001 (ip), vehicle: saline). The T/C is 96 % of control (endpoint: median survival time, dose: 750.0 mg/kg/injection, schedule: Q01DX001 (ip), vehicle: saline); 84 % of control (endpoint: median survival time, dose: 1000.0 mg/kg/injection, schedule: Q01DX001 (ip), vehicle: saline); 97 % of control (endpoint: median survival time, dose: 2500.0 mg/kg/injection, schedule: Q01DX001 (ip), vehicle: saline).
Regarding `O=C(O)C1CCOC1=O` (configuration not stated), the T/C is 107 % of control (endpoint: mean survival time, dose: 50.0 mg/kg/injection, schedule: Q04DX002 (ip), vehicle: saline); 98 % of control (endpoint: mean survival time, dose: 100.0 mg/kg/injection, schedule: Q04DX002 (ip), vehicle: saline); 98 % of control (endpoint: mean survival time, dose: 200.0 mg/kg/injection, schedule: Q04DX002 (ip), vehicle: saline).
For `CC(C)(OC(=O)C(NC=O)C(C)(C)S)OC(=O)C(NC=O)C(C)(C)S` (configuration not stated), the T/C by setting is: under setting [5], 101 % of control; under setting [7], 101 % of control; under setting [8], 101 % of control.
Consider `CC(=O)Nc1ncc(CN2CCCCC2)s1`, for which the T/C is 100 % of control (endpoint: mean survival time, dose: 100.0 mg/kg/injection, schedule: Q04DX002 (ip), vehicle: Klucel (hydroxypropylcellulose) (HPC)) and 103 % of control (endpoint: mean survival time, dose: 200.0 mg/kg/injection, schedule: Q04DX002 (ip), vehicle: Klucel (hydroxypropylcellulose) (HPC)).
As for `O=C(On1nnc2ccccc2c1=O)c1ccccc1`, the T/C reads like this: (endpoint: mean survival time, dose: 12.5 mg/kg/injection, schedule: Q01DX001 (ip), vehicle: distilled water + Tween-80) 102 % of control; (endpoint: mean survival time, dose: 25.0 mg/kg/injection, schedule: Q01DX001 (ip), vehicle: distilled water + Tween-80) 101 % of control; (endpoint: mean survival time, dose: 50.0 mg/kg/injection, schedule: Q01DX001 (ip), vehicle: distilled water + Tween-80) 98 % of control; (endpoint: mean survival time, dose: 100.0 mg/kg/injection, schedule: Q01DX001 (ip), vehicle: distilled water + Tween-80) 100 % of control; (endpoint: mean survival time, dose: 200.0 mg/kg/injection, schedule: Q01DX001 (ip), vehicle: distilled water + Tween-80) 97 % of control.
As to `OCc1c(Cl)cccc1Cl`, the T/C is 104 % of control under setting [4]; 96 % of control and 102 % of control under setting [5]; 97 % of control and 105 % of control (endpoint: mean survival time, dose: 100.0 mg/kg/injection, schedule: Q04DX002 (ip), vehicle: saline with Tween-80); 103 % of control under setting [1]; 102 % of control under setting [6]; 95 % of control and 96 % of control under setting [7]. Besides, the T/C (endpoint: mean survival time, dose: 200.0 mg/kg/injection, schedule: Q04DX002 (ip), vehicle: saline with Tween-80) was 97 % of control and 112 % of control; the T/C under setting [2] is 113 % of control; the T/C (endpoint: mean survival time, dose: 400.0 mg/kg/injection, schedule: Q01DX001 (ip), vehicle: saline with Tween-80) is 107 % of control; the T/C under setting [8] was 101 % of control and 104 % of control; the T/C (endpoint: mean survival time, dose: 400.0 mg/kg/injection, schedule: Q04DX002 (ip), vehicle: saline with Tween-80) was 101 % of control and 109 % of control; the T/C under setting [3] was 103 % of control.
As for `CO[C@@]12[C@@H]3N[C@@H]3CN1C1=C(C(=O)C(NCCc3ccc(O)cc3)=C(C)C1=O)[C@@H]2COC(N)=O`, the T/C is 102 % of control (endpoint: mean survival time, dose: 1.5 mg/kg/injection, schedule: Q01DX001 (ip), vehicle: water); 104 % of control and 111 % of control (endpoint: mean survival time, dose: 3.0 mg/kg/injection, schedule: Q01DX001 (ip), vehicle: water); 111 % of control (endpoint: mean survival time, dose: 6.0 mg/kg/injection, schedule: Q01DX001 (ip), vehicle: water); 115 % of control (endpoint: mean survival time, dose: 12.0 mg/kg/injection, schedule: Q01DX001 (ip), vehicle: water); 151 % of control (endpoint: mean survival time, dose: 48.0 mg/kg/injection, schedule: Q01DX001 (ip), vehicle: water).
For `OC[CH2][Hg][Br]`, the T/C is, setting by setting: (endpoint: mean survival time, dose: 0.37 mg/kg/injection, schedule: Q01DX009 (ip), vehicle: saline) 90 % of control; (endpoint: mean survival time, dose: 0.75 mg/kg/injection, schedule: Q01DX009 (ip), vehicle: saline) 92 % of control; (endpoint: mean survival time, dose: 1.5 mg/kg/injection, schedule: Q01DX009 (ip), vehicle: saline) 95 % of control; (endpoint: mean survival time, dose: 3.0 mg/kg/injection, schedule: Q01DX009 (ip), vehicle: saline) 93 % of control.
`NS(=O)(=O)C1CCC(Cl)NC1` (configuration not stated): the T/C under setting [1] was 100 % of control, the T/C under setting [2] was 96 % of control and the T/C under setting [3] is 102 % of control.
On to `O=NN(Cc1cccnc1)Cc1cccnc1`, for which the T/C is, setting by setting: (endpoint: mean survival time, dose: 75.0 mg/kg/injection, schedule: Q01DX001 (ip), vehicle: water) 102 % of control; (endpoint: mean survival time, dose: 150.0 mg/kg/injection, schedule: Q01DX001 (ip), vehicle: water) 102 % of control.
